Test results reported in patent publication US20250017952A1, “ANTIFUNGAL COMPOUND, COMPOSITION AND USES THEREOF” (SASTRA DEEMED UNIVERSITY, priority 2021, published 2025).
pIC50: −log10 of the molar value. Values joined by “and” are separate entries in the source; they are usually repeats but may differ in a detail not shown here. Identical values can stand only once. “Also recorded” adds a separate entry of the source.

Columns and labels:
[1] = system: C. albicans planktonic cells; test: Planktonic growth, OD at 595 nm; assay type: cell-based, Candida albicans; conditions: 100 μM-0.47 pM tested
Description: (§1) FIG. 3 illustrates antifungal and antibiofilm evaluation against C. albicans at varying concentrations: The effect of the Cangrelor on planktonic cells was determined by measuring the OD at 595 nm. A wide range of concentrations ranging from 100 μM-0.47 pM were considered for evaluation. Biofilm inhibitory effects were determined by measuring the biofilm biomass using the Crystal Violet (CV) assay. The dose-response curves were plotted by fitting the inhibition data using a 4-parameter logistic equation. Cangrelor inhibited biofilms at a minimum concentration of 120 pM

C. albicans biofilm = test: Biofilm inhibition, Crystal Violet (CV) assay; assay type: cell-based, Candida albicans; conditions: crystal violet biofilm biomass
Description: as §1

[2] = system: C. albicans SC5314 biofilm; test: CLSM analysis of biofilm with COMSTAT quantification; assay type: cell-based, Candida albicans; conditions: for live/dead fluorescence of cells in CLSM: green = live, red = dead
Description: FIG. 4a illustrates CLSM analyses of biofilm inhibitory effects of Cangrelor against C. albicans SC5314. […] The presence of red fluorescence in fluconazole treatment confirms its fungicidal effect. The COMSTAT analysis was done to quantify the biofilm coverage, average thickness, and biovolume from Z-stacks obtained from at least 5 regions of the glass slides, using a confocal laser scanning microscope (Olympus FLUOVIEW, FV1000) with a 40× objective lens (FIG. 4b).

[3] = system: C. albicans SC5314 biofilm; test: SEM analysis of biofilm; assay type: cell-based, Candida albicans
Description: FIG. 5 illustrates Cangrelor abolish C. albicans SC5314 biofilm. An overnight culture of C. albicans was grown overnight at 30° C. in YPD liquid media. C. albicans cells (1.5×10^7 cells/ml) were seeded on the glass slides in the presence or absence of the ALS-3 drug-like chemotype, Cangrelor in YPD and incubated at 37° C. for 24 h. […] Statistical significance was determined using the unpaired Student's t test (P<0.0001).

[4] = system: Candida albicans SC5314, ATCC90028, clinical isolate BF1; test: Germ tube / filamentation inhibition, phase contrast; assay type: cell-based; conditions: for germ tube / hyphal morphogenesis, time-dependent: till 6 h, three strains
Description: FIG. 6 illustrates the phase contrast images of germ tube inhibition of Candida albicans for the three strains by cangrelor in a time-dependent manner till 6 h. The untreated C. albicans show the hyphal development from the 2nd hour, where the yeast cells adhere, and at the 6 h, the hyphal is elongated and branched.
FIG. 7 illustrates the phase contrast images of filamentation inhibition of Candida albicans by cangrelor after 24 h of inhibition.
A time-dependent mapping of the hyphal development was done until 6 h upon Cangrelor treatment and compared to the untreated control for the three strains of C. albicans, including the standard strains-SC5314 and ATCC90028, and clinical isolate, BF1. […] The morphogenesis switch inhibition is essential as the primary virulence characteristic of C. albicans is hyphal formation. The hyphal form is necessary for biofilm formation and polymicrobial interaction to invade the host cell and overcome the immune response.

[5] = system: C. albicans biofilm, hyphal and virulence genes; test: qRTPCR of biofilm, hyphal and virulence genes; assay type: cell-based, Candida albicans
Description: FIG. 8 illustrates the qRTPCR analysis of biofilm, hyphal and virulence genes in C. albicans biofilms treated with Cangrelor using 18srRNA as the housekeeping gene. Briefly, after 24 h incubation, planktonic cells were removed, and biofilm cells were collected, and RNA was extracted for the treated and untreated groups. […] The data was obtained in triplicates and analysis was performed by the 2^−ΔΔCt method.

[6] = system: C. albicans virulence genes (biofilm, hyphae, drug resistance); test: RNAseq differential expression analysis; assay type: cell-based, Candida albicans; conditions: treated vs untreated
Description: A cutoff absolute value of log fold change >1 (2-fold change) was used. Adjusted P value <0.05 (c) Venn diagram illustrating the degree of overlap between various virulence genes (Biofilm Inducing (BI); Hyphal Inducing (HI); and Drug Resistance (DR) in C. albicans under drug (Cangrelor) treated and untreated conditions.
TRY6, FYV5 (Pentland et al., 2018; Murillo et al., 2005; Nett et al., 2009a), drug-resistance genes MAK1 and RPP1 (Nett et al., 2009b; Levitin & Whiteway, 2007a) and upregulation of the genes, GAL and MAF1 that negatively regulates (repressors) the biofilm phenotype in C. albicans (Nobile et al., 2012). […] In Candida albicans, the potential shift from yeast to hypha is a route cause to host invasion and symbiotic relationship with other pathogens, where the data was significant to show downregulation of hyphal-specific genes such as ECE1, RAS, NDT80 (Moyes et al., 2016). […] This observation was very crucial to the inventor's claim that the compound, Cangrelor could potentiate the anti-fungal susceptibility (Moyes et al., 2016; Maglott et al., 2007b; Levitin & Whiteway, 2007b; Chaudhuri et al., 2011; Singh et al., 2011). Taken together, Cangrelor systematically downregulate the virulence features to potentially curb the pathogenesis of C. albicans.

[7] = system: Candida albicans on T24 bladder epithelial cells; test: Adhesion and invasion of C. albicans in monolayer T24 bladder epithelial cells; assay type: cell-based
Description: FIG. 10 illustrates the microscopic images of the monolayer T24 bladder epithelial cells infected with Candida albicans with and without Cangrelor treatment. […] The yeast cells (circled in white) were maintained upon the treatment and thereby couldn't adhere and invade the epithelial cells.

Q: How did the “growth of C. albicans (planktonic)” value [1] turn out when `CSCCNc1nc(SCCC(F)(F)F)nc2c1ncn2[C@@H]1O[C@H](COP(=O)(O)OP(=O)(O)C(Cl)(Cl)P(=O)(O)O)[C@@H](O)[C@H]1O` [Cangrelor] was run?
A: without affecting growth; also recorded: not inhibited

Q: What about the pIC50 (C. albicans biofilm; Candida albicans, read-out: BIC50 (50% Biofilm Inhibition Concentration)) of the same molecule?
A: 9.92

Q: And the “concentration at which biofilms were inhibited (minimum / very low concentration)” value (C. albicans biofilm)?
A: 120 pM

Q: What about the “biofilm structure in CLSM images” value ([2]; C. albicans SC5314) of the same molecule?
A: no biofilm formation

Q: And the roughness coefficient ([2]; COMSTAT, control 1.2)?
A: 1.91

Q: What about the diffusion distance ([2]; COMSTAT, control 8.73 μm) of the same molecule?
A: 0.18 μm

Q: And the average biofilm thickness ([2]; COMSTAT, control 28.64 μm)?
A: 0.5 μm

Q: What about the biofilm biomass ([2]; COMSTAT, untreated 25.96 μm) of the same molecule?
A: significant reduction

Q: And the “live/dead fluorescence of cells in CLSM” value [2]?
A: live cells

Q: And the “filamentation in SEM” value ([3]; 120 pM vs untreated control)?
A: abolished filamentation

Q: What about the “number of cells in SEM” value ([3]; 120 pM, 24 h, YPD, untreated more than 1200 cells) of the same molecule?
A: < 56 cells and < 60 cells

Q: And the “filamentation after 24 h” value ([4]; 24 h)?
A: maintained the yeast form

Q: And the “germ tube / hyphal morphogenesis, time-dependent” value [4]?
A: inhibits the hyphal morphogenesis

Q: And the “germ tube / hyphal morphogenesis, time-dependent” value ([4]; listed as cangrelor)?
A: did not switch to the hyphal form

Q: What about the “expression of adhesion and invasion genes” value ([5]; 240 pM, 24 h biofilm cells) of the same molecule?
A: downregulated

Q: What about the ECE1 gene expression ([5]; qRTPCR) of the same molecule?
A: downregulation

Q: And the ERG11 gene expression ([5]; qRTPCR)?
A: downregulated

Q: What about the PLB1 expression downregulation ([5]; qRTPCR, 2^−ΔΔCt) of the same molecule?
A: ~2 log fold

Q: What about the “expression of transcriptional regulators of biofilm and hyphal genes, adhesin and hyphal specific protein” value ([5]; qRTPCR, 18srRNA housekeeping) of the same molecule?
A: downregulated

Q: What about the “number of biofilm inducing genes downregulated” value [6] of the same molecule?
A: more than 90 genes

Q: And the “adherence and invasion of epithelial cells” value [7]?
A: reducing adherence and invasion

Q: And the “hyphal morphogenesis on epithelial cells” value [7]?
A: inhibited hyphal morphogenesis

Q: For `OC(Cn1cncn1)(Cn1cncn1)c1ccc(F)cc1F` [fluconazole], which “live/dead fluorescence of cells in CLSM” value [2] is on record?
A: dead cells
